In patent publication US5912351A, “Anhydrous 1,4-Dihydropyridines and salts thereof” (Recordati, S.A. Chemical and Pharmaceutical Company, priority 1995, dated 1999):
Counter-ions that a name gives are not always drawn.

What was measured:
[1] = High temperature stress stability at 100° C., HPLC assay; format: physicochemical; conditions: in the light
Description: The two samples, lercanidipine hydrochloride hemihydrate, and anhydrous lercanidipine hydrochloride were heated, in the light, at 100° C. for 48 hours. The samples were tested at the following times; 0 hours, 24 hours, and 48 hours. The purity of the lercanidipine was checked by HPLC analysis under the following conditions:
Column: m-Bondapak C-18 (Waters), particle size […], 300×3.9 mm i.d.

[2] = Water content at 75% relative humidity (Karl-Fisher); format: physicochemical
Description: Samples of anhydrous lercanidipine hydrochloride and lercanidipine hydrochloride hemihydrate were placed in open polyethylene bags in flasks and heated, in the dark, at 60° C. and 75% relative humidity. The samples were checked for hygroscopicity by determination of the water content using the Karl-Fisher method. The samples were tested at 8 and 15 days.
Two additional samples of the anhydrous lercanidipine hydrochloride and lercanidipine hydrochloride hemihydrate were placed in open polyethylene bags in flasks and heated, in the dark, at 40° C. and 75% relative humidity. The samples were tested as described above at 8 and 15 days.

[3] = test system: mouse peritoneal macrophages; test: Cholesteryl ester hydrolysis in macrophages; format: cell-based; conditions: AcLDL 50 μg/ml + S-58035 1 μg/ml
Description: These experiments were performed by incubating cells preloaded with [^3 H]cholesterol in the presence of the specific ACAT inhibitor S-58035. The blockage of intracellular reesterification of cholesterol allowed the assessment of the ability of cells to hydrolyze the accumulated cholesterol esters.
For studies involving the quantitation of the hydrolysis of cholesteryl esters in cytoplasmic lipid droplets, cells, prepared according to the procedure in Example 6A, are loaded with cholesteryl esters by exposure for 24 hours to the medium containing 50 μg/ml acetyl LDL. [1,2-^3 H]Cholesterol is included in all loading media at a concentration of 0.5 μCi/ml. After 24 hours loading period, during which time the radiolabeled cholesterol is incorporated and esterified, the cell monolayers are washed and incubated an additional 24 hours in medium containing 0.1% bovine serum albumin to allow the intracellular pools of labelled cholesterol to equilibrate to the same specific activity. To quantitate cholesteryl ester hydrolysis, the loaded cells are incubated for up to 24 hours in Dulbecco's minimum essential medium containing, 0.1% bovine serum albumin, lercanidipines, and the compound S-58035, an inhibitor of acyl-coenzyme A-cholesterol acyltransferase. The inhibition of acyl-coenzyme A-cholesterol acyltransferase prevents the reesterification of any free cholesterol generated by cholesteryl ester hydrolysis and thus allows assessment of the activity of the hydrolase. The hydrolysis of the cholesteryl esters is quantified by determining the decrease of radiolabeled cholesteryl esters (E. H. Harrison et al., J. Lipid. Res. 31: […] with phosphate buffered saline and extracted with hexane:isopropanol (3:2 v/v). The media were extracted with chloroform:methanol (2:1 v/v). After solvent removal, free and esterified cholesterol were separated by TLC (isooctane:diethyl ether:acetic acid, 75:25:2 by volume). Cholesterol mass or radioactivity of the spots were determined by an enzymatic method (Boehringer Mannheim, Germany) (F. Bernini et al., Atherosclerosis 104: 19 (1993)) or by liquid scintillation counting (Lipoluma Lumac, Landgraf, The Netherlands) respectively.

Question: With `COC(=O)C1=C(C)NC(C)=C(C(=O)OC(C)(C)CN(C)CCC(c2ccccc2)c2ccccc2)C1c1cccc([N+](=O)[O-])c1` (stereo not shown) [Anhydrous, METHYL 1,1-N-TRIMETHYL-N-(3,3-DIPHENYLPROPYL)-2-AMINOETHYL 1,4-DIHYDRO-2,6-DIMETHYL-4-(3-NITROPHENYL) PYRIDINE-3,5-DICARBOXYLATE (LERCANIDIPINE) HYDROCHLORIDE] as the molecule, how does the “Assay % by HPLC” value ([1]; 0 hr, HYDROCHLORIDE) read?
Answer: 99.74%

Question: And the remaining at 24 h ([1]; solid, 24 hrs)?
Answer: 99.4%

Question: And the remaining at 48 h ([1]; solid, 48 hrs)?
Answer: 99%

Question: What about the Water Content ([2]; 40° C., 0 days, HYDROCHLORIDE) of the same molecule?
Answer: 0.28%

Question: What about the Water Content ([2]; 40° C., 8 days, HYDROCHLORIDE) of the same molecule?
Answer: 0.3%

Question: And the Water Content ([2]; 40° C., 15 days, HYDROCHLORIDE)?
Answer: 0.32%

Question: What about the Water Content ([2]; 60° C., 0 days, HYDROCHLORIDE) of the same molecule?
Answer: 0.28%

Question: And the Water Content ([2]; 60° C., 8 days, HYDROCHLORIDE)?
Answer: 0.85%

Question: And the Water Content ([2]; 60° C., 15 days, HYDROCHLORIDE)?
Answer: 0.77%

Question: With `CCCCCCCCCC[Si](C)(C)CCC(=O)NC(Cc1ccc(C)cc1)c1ccccc1` (stereo not shown) [Example S-58035, reference compound] as the molecule, how does the “% of cholesteryl ester” value [3] read?
Answer: 15 ± 0.5%

Question: What does the source list for `COC(=O)C1=C(C)NC(C)=C(C(=O)OC(C)(C)CN(C)CCC(c2ccccc2)c2ccccc2)C1c1cccc([N+](=O)[O-])c1` (stereo not shown) [Hemihydrate, Lercanidipine hydrochloride hemihydrate, reference compound]?
Answer: Assay % by HPLC ([1]; 0 hr): 99.85%; Assay % by HPLC ([1]; 24 hrs, hydrochloride hemihydrate, 1440 min): 92.35%; Assay % by HPLC ([1]; 48 hrs, hydrochloride hemihydrate, 2880 min): 90.96%; Water Content ([2]; 40° C., 0 days): 1.42%; Water Content ([2]; 40° C., 8 days): 3.14%; Water Content ([2]; 40° C., 15 days): 3.05%; Water Content ([2]; 60° C., 0 days): 1.42%; Water Content ([2]; 60° C., 8 days): 4%; Water Content ([2]; 60° C., 15 days): 4.04%
